In patent US10947252B2, “Inhibitors of KEAP1-Nrf2 protein-protein interaction” (Janssen Pharmaceutica NV, priority 2018, dated 2021):
pEC50, pKd: −log10 of the molar value.

What was measured:
[1] = molecular target: Kelch domain of human KEAP1 (321-624 aa) (Homo sapiens (Human), UniProt Q14145); experiment: KEAP1 KELCH ThermoFluor binding assay; conditions: KEAP Kelch […], 1,8-ANS, pH 7.0, average of results obtained, read-out: Tf Kd;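 also: Ligand-induced melting temperature shift of E. coli-expressed KEAP1 Kelch protein, Kd estimated from concentration-response curves of ΔTm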
Kelch domain of human KEAP1 (321-624 aa), sequence (Q14145 321-624): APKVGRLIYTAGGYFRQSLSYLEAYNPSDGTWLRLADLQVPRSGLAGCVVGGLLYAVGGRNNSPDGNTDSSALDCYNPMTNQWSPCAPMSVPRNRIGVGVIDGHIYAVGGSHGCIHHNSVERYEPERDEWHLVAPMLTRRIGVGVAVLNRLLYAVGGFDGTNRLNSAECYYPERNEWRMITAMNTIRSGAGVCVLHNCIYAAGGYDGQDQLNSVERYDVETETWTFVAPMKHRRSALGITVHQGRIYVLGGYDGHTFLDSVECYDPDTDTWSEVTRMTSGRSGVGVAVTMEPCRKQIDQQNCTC

[2] = system: Glo-Response ARE-luc2P HEK293 cell line; experiment: ARE luciferase reporter cell-based assay; conditions: Homo sapiens, HEK293, 24 h, average of results obtained;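 also: luciferase signal tracks Nrf2 activation of the ARE once compounds disrupt KEAP1-Nrf2 binding, read with One-Glo reagent, DMSO serving as low control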

Compound	pKd [1]	pEC50 [2]
Cc1ccc([C@H](CC(=O)O)c2ccn3c(C(F)(F)F)nnc3c2C)cc1CN1C[C@@H]2CCCN2c2ccccc2S1(=O)=O (single isomer, unassigned) [Example 274, (*S)-3-(3-(((S)-5,5-Dioxido-7a,8,9,10-tetrahydrobenzo[f]pyrrolo[2,1-d][1,2,5]thiadiazepin-6(7H)-yl)methyl)-4-methylphenyl)-3-(8-methyl-3-(trifluoromethyl)-[1,2,4]triazolo[4,3-a]pyridin-7-yl)propanoic Acid]	8.92	7.29
CCc1nnc2c(C)c([C@H](CC(=O)O)c3ccc(C)c(CN4C[C@H]5CCCN5c5ncccc5S4(=O)=O)c3)ccn12 (single isomer, unassigned) [Example 283, (*R)-3-(3-(((R)-5,5-dioxido-7a,8,9,10-tetrahydropyrido[2,3-f]pyrrolo[2,1-d][1,2,5]thiadiazepin-6(7H)-yl)methyl)-4-methylphenyl)-3-(3-ethyl-8-methyl-[1,2,4]triazolo[4,3-a]pyridin-7-yl)propanoic Acid]	> 9.00	5.38
Cc1ccc([C@H](CC(=O)O)c2ccn3c(C(F)(F)F)nnc3c2C)cc1CN1CC(C)(C)Oc2ccccc2S1(=O)=O (single isomer, unassigned) [Example 284, 3-(3-((4,4-Dimethyl-1,1-dioxido-3,4-dihydro-2H-benzo[b][1,4,5]oxathiazepin-2-yl)methyl)-4-methylphenyl)-3-(8-methyl-3-(trifluoromethyl)-[1,2,4]triazolo[4,3-a]pyridin-7-yl)propanoic Acid]	8.78	6.67
Cc1ccc([C@H](CC(=O)O)c2ccn3c(C(F)(F)F)nnc3c2C)cc1CN1CC(C)(C)Oc2ccccc2S1(=O)=O (single isomer, unassigned) [Example 285, (*S)-3-(3-((4,4-Dimethyl-1,1-dioxido-3,4-dihydro-2H-benzo[b][1,4,5]oxathiazepin-2-yl)methyl)-4-methylphenyl)-3-(8-methyl-3-(trifluoromethyl)-[1,2,4]triazolo[4,3-a]pyridin-7-yl)propanoic Acid]	8.96	6.89
Cc1ccc([C@@H](CC(=O)O)c2ccn3c(C(F)(F)F)nnc3c2C)cc1CN1CC(C)(C)Oc2ccccc2S1(=O)=O (single isomer, unassigned) [Example 286, (*R)-3-(3-((4,4-Dimethyl-1,1-dioxido-3,4-dihydro-2H-benzo[b][1,4,5]oxathiazepin-2-yl)methyl)-4-methylphenyl)-3-(8-methyl-3-(trifluoromethyl)-[1,2,4]triazolo[4,3-a]pyridin-7-yl)propanoic Acid]	8.47	6.30
Cc1ccc([C@H](CC(=O)O)c2ccn3c(C(F)(F)F)nnc3c2C)cc1CN1C[C@@H]2CCCCN2c2ncccc2S1(=O)=O (single isomer, unassigned) [Example 290, (*S)-3-(3-(((*S)-5,5-Dioxido-7,7a,8,9,10,11-hexahydro-6H-dipyrido[2,1-d:2′,3′-f][1,2,5]thiadiazepin-6-yl)methyl)-4-methylphenyl)-3-(8-methyl-3-(trifluoromethyl)-[1,2,4]triazolo[4,3-a]pyridin-7-yl)propanoic Acid]	> 9.00	8.06

Second part, led by results:

pKd [1]	Compound	pEC50 [2]
> 9.00	Cc1ccc([C@H](CC(=O)O)c2ccn3c(C(F)(F)F)nnc3c2C)cc1CN1C[C@H]2CCCCN2c2ncccc2S1(=O)=O (single isomer, unassigned) [Example 272, (*S)-3-(3-(((*R)-5,5-Dioxido-7,7a,8,9,10,11-hexahydro-6H-dipyrido[2,1-d:2′,3′-f][1,2,5]thiadiazepin-6-yl)methyl)-4-methylphenyl)-3-(8-methyl-3-(trifluoromethyl)-[1,2,4]triazolo[4,3-a]pyridin-7-yl)propanoic Acid]	7.96
> 9.00	Cc1ccc([C@@H](CC(=O)O)c2ccn3c(C(F)(F)F)nnc3c2C)cc1CN1C[C@H]2CCCCN2c2ncccc2S1(=O)=O (single isomer, unassigned) [Example 273, (*R)-3-(3-(((*R)-5,5-Dioxido-7,7a,8,9,10,11-hexahydro-6H-dipyrido[2,1-d:2′,3′-f][1,2,5]thiadiazepin-6-yl)methyl)-4-methylphenyl)-3-(8-methyl-3-(trifluoromethyl)-[1,2,4]triazolo[4,3-a]pyridin-7-yl)propanoic Acid]	7.59
8.06	Cc1ccc([C@@H](CC(=O)O)c2ccn3c(C(F)(F)F)nnc3c2C)cc1CN1C[C@@H]2CCCN2c2ccccc2S1(=O)=O (single isomer, unassigned) [Example 275, (*R)-3-(3-(((S)-5,5-Dioxido-7a,8,9,10-tetrahydrobenzo[f]pyrrolo[2,1-d][1,2,5]thiadiazepin-6(7H)-yl)methyl)-4-methylphenyl)-3-(8-methyl-3-(trifluoromethyl)-[1,2,4]triazolo[4,3-a]pyridin-7-yl)propanoic Acid]	6.40
> 9.00	CCc1nnc2c(C)c([C@@H](CC(=O)O)c3ccc(C)c(CN4C[C@H]5CCCN5c5ccccc5S4(=O)=O)c3)ccn12 (single isomer, unassigned) [Example 279, (*S)-3-(3-(((R)-5,5-Dioxido-7a,8,9,10-tetrahydrobenzo[f]pyrrolo[2,1-d][1,2,5]thiadiazepin-6(7H)-yl)methyl)-4-methylphenyl)-3-(3-ethyl-8-methyl-[1,2,4]triazolo[4,3-a]pyridin-7-yl)propanoic Acid]	6.63
> 9.00	CCc1nnc2c(C)c([C@H](CC(=O)O)c3ccc(C)c(CN4C[C@H]5CCCN5c5ccccc5S4(=O)=O)c3)ccn12 (single isomer, unassigned) [Example 280, (*R)-3-(3-(((R)-5,5-Dioxido-7a,8,9,10-tetrahydrobenzo[f]pyrrolo[2,1-d][1,2,5]thiadiazepin-6(7H)-yl)methyl)-4-methylphenyl)-3-(3-ethyl-8-methyl-[1,2,4]triazolo[4,3-a]pyridin-7-yl)propanoic Acid]	5.40
> 9.00	CCc1nnc2c(C)c([C@@H](CC(=O)O)c3ccc(C)c(CN4C[C@H]5CCCN5c5ncccc5S4(=O)=O)c3)ccn12 (single isomer, unassigned) [Example 282, (*S)-3-(3-(((R)-5,5-dioxido-7a,8,9,10-tetrahydropyrido[2,3-f]pyrrolo[2,1-d][1,2,5]thiadiazepin-6(7H)-yl)methyl)-4-methylphenyl)-3-(3-ethyl-8-methyl-[1,2,4]triazolo[4,3-a]pyridin-7-yl)propanoic Acid]	6.53
> 9.00	Cc1ccc([C@@H](CC(=O)O)c2ccn3c(C(F)(F)F)nnc3c2C)cc1CN1CC2(COC2)Oc2ccccc2S1(=O)=O (single isomer, unassigned) [Example 288, (*R)-3-(3-((1,1-dioxidospiro[benzo[b][1,4,5]oxathiazepine-4,3′-oxetan]-2(3H)-yl)methyl)-4-methylphenyl)-3-(8-methyl-3-(trifluoromethyl)-[1,2,4]triazolo[4,3-a]pyridin-7-yl)propanoic Acid]	6.91
